# Legend:
# [1] = biological target: Keap1 (Homo sapiens, UniProt Q14145); assay: WB of Keap1 in OCI-AML2 cells (soluble/insoluble phase); format: cell-based; design: endogenous in cells; host or cells: OCI-AML2; details: OCI-AML2 cells, 20 h treatment; for EC50: read-out: EC50 (Keap1 downregulation, WB)
# Experimental: Cells were incubated with DMSO at 0.1% or with compound in concentrations ranging 10–20,000 nM for 20 h unless indicated differently. Following incubation, lysis was performed in RIPA buffer and the samples were measured for total protein quantification by BCA assay (Thermo Fisher Scientific, 23225). Then, 20–40 μg of each sample was loaded and run on an SDS–PAGE gel, before transferring onto a nitrocellulose membrane using a Trans-Blot Turbo system (Bio-Rad) and blocking using a 5% BSA in TBS-T (w/v) solution for 1 h at room temperature. Incubation with primary antibodies (mouse anti-BCL-6 (sc-7388, Santa Cruz, 1:500; overnight at 4 °C), mouse anti-Keap1 (sc-365626, Santa Cruz, 1:500; overnight at 4 °C), rabbit anti-LDHA (4H18L6, Thermo Fisher, 1:1,000; overnight at 4 °C), mouse anti-NQO2 (sc-271665, Santa Cruz, 1:500; overnight at 4 °C), rabbit anti-c-Myc (5605, Cell Signaling, 1:1,000; overnight at 4 °C) and mouse anti-β-actin (3700, Cell Signaling, 1:1,000; 1 h at room temperature) was performed and then the membranes were washed and incubated with a horseradish-peroxidase-conjugated secondary antibody (mouse 7076/rabbit 7074, Cell Signaling) at room temperature for 1 h. Imaging of the chemiluminescence signal was performed using a ChemiDoc XRS+ instrument (Bio-Rad). Primary band quantifications were normalized against β-actin bands.
# [2] = biological target: T1, recombinant NQO2 (Homo sapiens, UniProt P16083); assay: DLS of recombinant NQO2; format: biochemical; details: recombinant NQO2, room temperature, over time
# T1 construct: made in house; host or cells: E. coli BL21(DE3)
# T1 sequence (P16083 1-231): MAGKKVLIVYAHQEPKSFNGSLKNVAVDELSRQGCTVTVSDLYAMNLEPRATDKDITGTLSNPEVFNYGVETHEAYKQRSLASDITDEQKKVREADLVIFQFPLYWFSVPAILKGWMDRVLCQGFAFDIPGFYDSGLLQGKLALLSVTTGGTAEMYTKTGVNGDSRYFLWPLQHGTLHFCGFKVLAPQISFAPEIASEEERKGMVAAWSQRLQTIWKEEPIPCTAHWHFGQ
# Experimental: (§1) DLS samples were prepared in the respective protein’s elution buffer, to which 0.01% Tween was added, along with the compound from a DMSO stock to obtain a final DMSO concentration of 2%. Samples were prepared at room temperature and measured at a constant temperature of 25 °C. All samples were passed through 0.1-μm filters and then placed in a clear-bottom black 384-well plate. DLS data were recorded using a DynaproPlate Reader III (Wyatt Technology). Data were processed with the supplied DYNAMICS software.
# [3] = biological target: T2, recombinant Keap1 BTB (Homo sapiens, UniProt Q14145, S172A); assay: DLS of recombinant Keap1 BTB domain; format: biochemical; details: 50 μM Keap1 BTB, 50 μM compound, room temperature, over time
# T2 construct: The Keap1 BTB domain (48–180) encoding the single substitution S172A was cloned into pET28-bdSumo vector; His–bdSumo (N, cleaved yes); made in house; host or cells: E. coli BL21(DE3)
# Experimental: as §1
# Sequence of Keap1 (Q14145 whole entry): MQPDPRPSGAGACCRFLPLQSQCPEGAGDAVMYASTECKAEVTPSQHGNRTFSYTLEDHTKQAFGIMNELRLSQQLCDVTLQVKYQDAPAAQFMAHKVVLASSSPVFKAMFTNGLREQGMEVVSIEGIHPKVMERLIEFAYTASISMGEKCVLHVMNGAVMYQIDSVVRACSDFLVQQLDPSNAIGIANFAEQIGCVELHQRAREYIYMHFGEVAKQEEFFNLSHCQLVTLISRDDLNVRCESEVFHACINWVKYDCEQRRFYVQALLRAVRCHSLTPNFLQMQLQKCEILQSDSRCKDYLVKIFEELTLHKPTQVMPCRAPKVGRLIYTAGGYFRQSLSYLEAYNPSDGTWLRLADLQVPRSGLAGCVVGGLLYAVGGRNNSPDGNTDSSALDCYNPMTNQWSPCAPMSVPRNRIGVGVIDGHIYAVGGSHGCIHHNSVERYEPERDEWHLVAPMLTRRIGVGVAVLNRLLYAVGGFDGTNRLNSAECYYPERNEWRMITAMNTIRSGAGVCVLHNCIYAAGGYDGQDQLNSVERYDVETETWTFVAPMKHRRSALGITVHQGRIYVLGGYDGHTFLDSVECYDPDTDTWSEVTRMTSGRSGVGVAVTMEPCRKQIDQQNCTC
# T2 sequence (Q14145 48-180 S172A): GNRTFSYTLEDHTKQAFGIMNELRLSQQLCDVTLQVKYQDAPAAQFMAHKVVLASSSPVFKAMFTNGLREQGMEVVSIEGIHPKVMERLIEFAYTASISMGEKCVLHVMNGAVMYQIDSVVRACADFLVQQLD
Structure (SMILES),EC50 [1],Keap1 in soluble and insoluble fraction (WB activity) [1],further results
CC1(C)CCC2(C(=O)NCCSCCSCCNC(=O)C34CCC(C)(C)CC3C3C(=O)C=C5C6(C)C=C(C#N)C(=O)C(C)(C)C6CCC5(C)C3(C)CC4)CCC3(C)C(C(=O)C=C4C5(C)C=C(C#N)C(=O)C(C)(C)C5CCC43C)C2C1 (stereo not drawn) [EL164],434 nM,–,–
Cc1ccc(-c2cn3cccc(C)c3n2)cc1S(=O)(=O)N1CCN(C(=O)CCOCCOCCOCCOCCOCCOCCOCCOCCOCCOCCC(=O)N2CCN(S(=O)(=O)c3cc(-c4cn5cccc(C)c5n4)ccc3C)CC2)CC1 [EL241],–,–,formation of larger species (DLS) [2]: little to no effect in polymerizing NQO2
CC1(C)CCC2(C(=O)NCCOCCOCCOCCNC(=O)C34CCC(C)(C)CC3C3C(=O)C=C5C6(C)C=C(C#N)C(=O)C(C)(C)C6CCC5(C)C3(C)CC4)CCC3(C)C(C(=O)C=C4C5(C)C=C(C#N)C(=O)C(C)(C)C5CCC43C)C2C1 (stereo not drawn) [EL151],–,no activity,–
CC1(C)CCC2(C(=O)NCCOCCOCCOCCOCCOCCOCCNC(=O)C34CCC(C)(C)CC3C3C(=O)C=C5C6(C)C=C(C#N)C(=O)C(C)(C)C6CCC5(C)C3(C)CC4)CCC3(C)C(C(=O)C=C4C5(C)C=C(C#N)C(=O)C(C)(C)C5CCC43C)C2C1 (stereo not drawn) [EL152],904 nM,–,–
CC1(C)CCC2(C(=O)NCCOCCOCCOCCOCCOCCOCCOCCOCCOCCOCCOCCOCCOCCNC(=O)C34CCC(C)(C)CC3C3C(=O)C=C5C6(C)C=C(C#N)C(=O)C(C)(C)C6CCC5(C)C3(C)CC4)CCC3(C)C(C(=O)C=C4C5(C)C=C(C#N)C(=O)C(C)(C)C5CCC43C)C2C1 (stereo not drawn) [EL229],–,reduced Keap1 in the cell’s soluble fraction and induced its accumulation in the insoluble fraction,–
CC1(C)CCC2(C(=O)NCC3CCC(CNC(=O)C45CCC(C)(C)CC4C4C(=O)C=C6C7(C)C=C(C#N)C(=O)C(C)(C)C7CCC6(C)C4(C)CC5)CC3)CCC3(C)C(C(=O)C=C4C5(C)C=C(C#N)C(=O)C(C)(C)C5CCC43C)C2C1 (stereo not drawn) [EL159],–,no activity,–
CC1(C)CCC2(C(=O)NCCN3CCN(CCNC(=O)C45CCC(C)(C)CC4C4C(=O)C=C6C7(C)C=C(C#N)C(=O)C(C)(C)C7CCC6(C)C4(C)CC5)CC3)CCC3(C)C(C(=O)C=C4C5(C)C=C(C#N)C(=O)C(C)(C)C5CCC43C)C2C1 (stereo not drawn) [EL165],342 nM,–,formation of large species (DLS) [3]: formation of large species over time
CC1(C)CCC2(C(=O)NCC(=O)N3CCN(C(=O)CNC(=O)C45CCC(C)(C)CC4C4C(=O)C=C6C7(C)C=C(C#N)C(=O)C(C)(C)C7CCC6(C)C4(C)CC5)CC3)CCC3(C)C(C(=O)C=C4C5(C)C=C(C#N)C(=O)C(C)(C)C5CCC43C)C2C1 (stereo not drawn) [EL174],–,no activity,–
CC1(C)CCC2(C(=O)NCCCCCCCCNC(=O)C34CCC(C)(C)CC3C3C(=O)C=C5C6(C)C=C(C#N)C(=O)C(C)(C)C6CCC5(C)C3(C)CC4)CCC3(C)C(C(=O)C=C4C5(C)C=C(C#N)C(=O)C(C)(C)C5CCC43C)C2C1 (stereo not drawn) [EL163],–,no activity,–
Cc1ccc(-c2cn3cccc(C)c3n2)cc1S(=O)(=O)N1CCN(C(=O)COCC(=O)N2CCN(S(=O)(=O)c3cc(-c4cn5cccc(C)c5n4)ccc3C)CC2)CC1 [EL244],–,–,formation of larger species (DLS) [2]: ability to form larger species in solution
CC1(C)CCC2(C(=O)NCCOCCNC(=O)C34CCC(C)(C)CC3C3C(=O)C=C5C6(C)C=C(C#N)C(=O)C(C)(C)C6CCC5(C)C3(C)CC4)CCC3(C)C(C(=O)C=C4C5(C)C=C(C#N)C(=O)C(C)(C)C5CCC43C)C2C1 (stereo not drawn) [EL147],–,no activity,–
Cc1ccc(-c2cn3cccc(C)c3n2)cc1S(=O)(=O)N1CCN(C(=O)COCCOCC(=O)N2CCN(S(=O)(=O)c3cc(-c4cn5cccc(C)c5n4)ccc3C)CC2)CC1 [EL245],–,–,formation of larger species (DLS) [2]: ability to form larger species in solution
CC1(C)CCC2(C(=O)NCCCCCCNC(=O)C34CCC(C)(C)CC3C3C(=O)C=C5C6(C)C=C(C#N)C(=O)C(C)(C)C6CCC5(C)C3(C)CC4)CCC3(C)C(C(=O)C=C4C5(C)C=C(C#N)C(=O)C(C)(C)C5CCC43C)C2C1 (stereo not drawn) [EL132],1020 nM,–,formation of large species (DLS) [3]: formation of large species over time
